Experimental data published in patent US20260224583A1, “COMPOSITIONS USEFUL FOR MODULATING SPLICING” (Skyhawk Therapeutics, Inc., priority 2023, published 2026).

tested on: ATXN3 transcripts containing exon 4 (E4E5); assay: ATXN3 Quantitative Splicing Assay (qPCR, E4E5 primers/probe); format: cell-based; conditions: Homo sapiens; SK-N-MC cells, 24 h treatment, 30 μM to 0.6 nM; read-out: ATXN3 Potency - Splicing E4E5 IC50
Procedure: Human neuroblastoma SK-N-MC cells were plated in 384-well plates at 20,000 cells/well. Twenty-four hours after plating, cells were treated with compounds for 24 h at appropriate concentrations ranging from 30 μM to 0.6 nM (0.3% DMSO). Treated cells were lysed in 15 μL of lysis buffer, and cDNA was synthesized using the Fast Advanced Cells-to-Ct kit. Two μL of each cDNA was used in qPCR reactions to confirm the exon 4 skipped transcripts of ATXN3. A second set of primers/probe E4E5 was used to detect the transcripts containing exon 4. The third set of primers/probe E8E9 was used to detect total gene level of ATXN3. The qPCR reactions were prepared in 384-well plates in 10 μL volume, using TaqMan™ Fast Advanced Master Mix with primers and probes shown in the table below. Reactions were run in a Quant Studio 6 qPCR instrument with default settings.
The primers and probes are listed below in Table 3.

SMILES	IC50
C[C@H](F)[C@H](N)Cc1cc2c(NCc3ccco3)nc(Cl)nn2c1Br [Compound 1, 6-((2R,3S)-2-amino-3-fluorobutyl)-7-bromo-2-chloro-N-(furan-2-ylmethyl)pyrrolo[2,1-f][1,2,4]triazin-4-amine]	0.01 to 100 nM
C[C@H](F)[C@H](N)Cc1cc2c(NCc3ccco3)nc(Cl)nn2c1Cl [Compound 2, 6-((2R,3S)-2-amino-3-fluorobutyl)-2,7-dichloro-N-(furan-2-ylmethyl)pyrrolo[2,1-f][1,2,4]triazin-4-amine]	101 to 500 nM
N[C@@H](CF)Cc1cc2c(NCc3ccco3)nc(Cl)nn2c1Cl [Compound 3, (R)-6-(2-amino-3-fluoropropyl)-2,7-dichloro-N-(furan-2-ylmethyl)pyrrolo[2,1-f][1,2,4]triazin-4-amine]	0.01 to 100 nM
N[C@@H](CF)Cc1cc2c(NCc3ccco3)nc(Cl)nn2c1Br [Compound 4, (R)-6-(2-amino-3-fluoropropyl)-7-bromo-2-chloro-N-(furan-2-ylmethyl)pyrrolo[2,1-f][1,2,4]triazin-4-amine]	0.01 to 100 nM
N[C@@H](COC(F)F)Cc1cc2c(NCc3ccco3)nc(Cl)nn2c1Cl [Compound 5, (R)-6-(2-amino-3-(difluoromethoxy)propyl)-2,7-dichloro-N-(furan-2-ylmethyl)pyrrolo[2,1-f][1,2,4]triazin-4-amine]	101 to 500 nM
N[C@@H](COC(F)F)Cc1cc2c(NCc3ccco3)nc(Cl)nn2c1Br [Compound 6, (R)-6-(2-amino-3-(difluoromethoxy)propyl)-7-bromo-2-chloro-N-(furan-2-ylmethyl)pyrrolo[2,1-f][1,2,4]triazin-4-amine]	101 to 500 nM
COC[C@H](N)Cc1cc2c(NCc3ccco3)nc(Cl)nn2c1Cl [Compound 7, (R)-6-(2-amino-3-methoxypropyl)-2,7-dichloro-N-(furan-2-ylmethyl)pyrrolo[2,1-f][1,2,4]triazin-4-amine]	101 to 500 nM
COC[C@H](N)Cc1cc2c(NCc3ccco3)nc(Cl)nn2c1Br [Compound 8]	101 to 500 nM
C[C@H](N)Cc1cc2c(NCc3ccco3)nc(Cl)nn2c1Cl [Compound 9]	0.01 to 100 nM
C[C@H](N)Cc1cc2c(NCc3ccco3)nc(Cl)nn2c1Br [Compound 10]	101 to 500 nM
[2H]C([2H])([2H])OCC(N)Cc1cc2c(NCc3ccco3)nc(Cl)nn2c1Br (centres unmarked) [Compound 11]	101 to 500 nM
[2H]C([2H])([2H])OC[C@H](N)Cc1cc2c(NCc3ccco3)nc(Cl)nn2c1Cl [Compound 12]	101 to 500 nM
N[C@H](Cc1cc2c(NCc3ccco3)nc(Cl)nn2c1Br)CC1CC1 [Compound 13]	101 to 500 nM
N[C@H](Cc1cc2c(NCc3ccco3)nc(Cl)nn2c1Br)CC(F)(F)F [Compound 14]	101 to 500 nM
N[C@@H](CCOC(F)(F)F)Cc1cc2c(NCc3ccco3)nc(Cl)nn2c1Br [Compound 15]	101 to 500 nM
N[C@@H](CCOC(F)F)Cc1cc2c(NCc3ccco3)nc(Cl)nn2c1Br [Compound 16]	0.01 to 100 nM
N[C@H](Cc1cc2c(NCc3ccco3)nc(Cl)nn2c1Cl)CC1CC1 [Compound 17]	101 to 500 nM
